Laboratory results published in patent publication US11357779B2 (G1 Therapeutics, Inc., priority 2018, dated 2022).
Where two headings read alike, the source gives them in different places.

Assay: Plasma concentration versus time of Compound I and metabolite Compound III in patients dosed QD or BID with Form B of Compound II plus fulvestrant
Assay type: in vivo, human
Conditions: human, plasma, oral; for concentration at 8 day: Day 8; for concentration at 15 day: Day 15; for concentration at 22 day: Day 22
From the text: Patients were enrolled into 1 of 2 parallel, independently operating, dose-escalation dosing cohorts with Form B of Compound II administered continuously either once daily (QD) or twice daily (BID) with food with fixed-dose fulvestrant (intramuscularly every 14 days for the first three injections and then every 28 days). Pre- or perimenopausal patients also received goserelin for the duration of study treatment. A […] agonist was started at least 28 days before the first dose of Form B, and those patients who were taking another LHRH agonist were switched to goserelin on Day 1. Patients were split into […] cohorts providing once a day (QD) dosing of 200 mg, 300 mg, 400 mg, 500 mg, or 650 mg of Form B, or twice a day (BID) dosing of 100 mg, 150 mg, or 200 mg of Form B. The second dose in BID cohorts was not administered in the evening until at least 12 hours after the initial morning dose of Form B. The dosing cohorts for Form B of Compound II are provided in Table 1.
Blood samples were collected at the following time points relative to the morning dose of Form B at Day 1 and at Day 29: pre-dose (0 hour) and 1, 2, 3, 4, 6, 8, 10, 12 (prior to the evening dose in the BID cohorts), and 24 (prior to the next day's morning dose) hours after dosing. A 5-minute time window was allowed for samples collected between the predose and 3 hours after Form B dosing. A 15-minute window was allowed for samples collected between 4 to 12 hours after Form B dosing. A 1-hour window was allowed for the sample collected 24 hours after Form B dosing. Blood samples for Compound I PK trough levels were collected pre-dose at Day 8, Day 15, and Day 22 prior to the morning administration of Compound I. Plasma concentrations of Compound I and its metabolite, Compound III, were measured using validated methods.
Analysis of plasma concentration versus time data for calculation of standard pharmacokinetic (PK) parameters following oral administration was conducted using Phoenix WinNonlin version 6.3 using actual blood sampling times.

[1] = 650 mg, Cohort 5, 650 mg QD of Form B, read-out: Trough Compound III Concentration, Max
[2] = 650 mg, Cohort 5, 650 mg QD of Form B, read-out: Trough Compound III Concentration, Mean
[3] = 650 mg, Cohort 5, 650 mg QD of Form B, read-out: Trough Compound III Concentration, Median
[4] = 650 mg, Cohort 5, 650 mg QD of Form B, read-out: Trough Compound III Concentration, Min

SMILES: O=C1NCC2(CCCCC2)n2c1cc1cnc(Nc3ccc(N4CCNCC4)cn3)nc12 [Compound III, 2′-((5-(piperazin-1-yl)pyridin-2-yl)amino)-7′,8′-dihydro-6′H-spiro[cyclohexane-1,9′-pyrazino[1′,2′:1,5]pyrrolo[2,3-d]pyrimidin]-6′-one]
- concentration at 8 h (500 mg, Cohort 4, 500 mg QD of Form B, Day 29, 8.0 h, read-out: Compound III Concentration, Mean): 3.56 ng/mL
- concentration at 8 h (500 mg, Cohort 4, 500 mg QD of Form B, Day 29, 8.0 h, read-out: Compound III Concentration, Min): 3.3 ng/mL
- concentration at 10 h (500 mg, Cohort 4, 500 mg QD of Form B, Day 29, 10.0 h, read-out: Compound III Concentration, Max): 2.88 ng/mL
- concentration at 10 h (500 mg, Cohort 4, 500 mg QD of Form B, Day 29, 10.0 h, read-out: Compound III Concentration, Mean): 2.66 ng/mL
- concentration at 10 h (500 mg, Cohort 4, 500 mg QD of Form B, Day 29, 10.0 h, read-out: Compound III Concentration, Min): 2.52 ng/mL
- concentration at 12 h (500 mg, Cohort 4, 500 mg QD of Form B, Day 29, 12.0 h, read-out: Compound III Concentration, Max): 2.55 ng/mL
- concentration at 12 h (500 mg, Cohort 4, 500 mg QD of Form B, Day 29, 12.0 h, read-out: Compound III Concentration, Mean): 2.33 ng/mL
- concentration at 12 h (500 mg, Cohort 4, 500 mg QD of Form B, Day 29, 12.0 h, read-out: Compound III Concentration, Min): 2.1 ng/mL
- concentration at 24 h (500 mg, Cohort 4, 500 mg QD of Form B, Day 29, […], read-out: Compound III Concentration, Mean): 1.24 ng/mL
- concentration at 24 h (500 mg, Cohort 4, 500 mg QD of Form B, Day 29, […], read-out: Compound III Concentration, Min): 0.959 ng/mL
- concentration at 0 h (650 mg, 650 mg QD of Form B, Day 1, 0.0 h, Mean, read-out: Compound III Concentration): 0 ng/mL
- concentration at 0 h (650 mg, 650 mg QD of Form B, Day 1, 0.0 h, Median, read-out: Compound III Concentration): 0 ng/mL
- concentration at 1 h (650 mg, 650 mg QD of Form B, Day 1, 1.0 h, Mean, read-out: Compound III Concentration): 2.73 ng/mL
- concentration at 1 h (650 mg, 650 mg QD of Form B, Day 1, 1.0 h, Median, read-out: Compound III Concentration): 2.77 ng/mL
- concentration at 2 h (650 mg, 650 mg QD of Form B, Day 1, 2.0 h, Mean, read-out: Compound III Concentration): 4.01 ng/mL
- concentration at 2 h (650 mg, 650 mg QD of Form B, Day 1, 2.0 h, Median, read-out: Compound III Concentration): 3.81 ng/mL
- concentration at 3 h (650 mg, 650 mg QD of Form B, Day 1, 3.0 h, Mean, read-out: Compound III Concentration): 6.13 ng/mL
- concentration at 3 h (650 mg, 650 mg QD of Form B, Day 1, 3.0 h, Median, read-out: Compound III Concentration): 6.43 ng/mL
- concentration at 4 h (650 mg, 650 mg QD of Form B, Day 1, 4.0 h, Mean, read-out: Compound III Concentration): 8.35 ng/mL
- concentration at 4 h (650 mg, 650 mg QD of Form B, Day 1, 4.0 h, Median, read-out: Compound III Concentration): 9.22 ng/mL
- concentration at 6 h (650 mg, 650 mg QD of Form B, Day 1, 6.0 h, Mean, read-out: Compound III Concentration): 9.69 ng/mL
- concentration at 6 h (650 mg, 650 mg QD of Form B, Day 1, 6.0 h, Median, read-out: Compound III Concentration): 10 ng/mL
- concentration at 8 h (650 mg, 650 mg QD of Form B, Day 1, 8.0 h, Mean, read-out: Compound III Concentration): 10.1 ng/mL
- concentration at 8 h (650 mg, 650 mg QD of Form B, Day 1, 8.0 h, Median, read-out: Compound III Concentration): 8.66 ng/mL
- concentration at 10 h (650 mg, 650 mg QD of Form B, Day 1, 10.0 h, Mean, read-out: Compound III Concentration): 6.63 ng/mL
- concentration at 10 h (650 mg, 650 mg QD of Form B, Day 1, 10.0 h, Median, read-out: Compound III Concentration): 5.32 ng/mL
- concentration at 12 h (650 mg, 650 mg QD of Form B, Day 1, 12.0 h, Mean, read-out: Compound III Concentration): 5.12 ng/mL
- concentration at 12 h (650 mg, 650 mg QD of Form B, Day 1, 12.0 h, Median, read-out: Compound III Concentration): 4.41 ng/mL
- concentration at 24 h (650 mg, 650 mg QD of Form B, Day 1, […], Mean, read-out: Compound III Concentration): 2.17 ng/mL
- concentration at 24 h (650 mg, 650 mg QD of Form B, Day 1, […], Median, read-out: Compound III Concentration): 1.51 ng/mL
- concentration at 8 day [1]: 4.96 ng/mL
- concentration at 8 day [2]: 3.55 ng/mL
- concentration at 8 day [3]: 3.79 ng/mL
- concentration at 8 day [4]: 1.65 ng/mL
- concentration at 15 day [1]: 3.6 ng/mL
- concentration at 15 day [2]: 3.13 ng/mL
- concentration at 15 day [3]: 3.52 ng/mL
- concentration at 15 day [4]: 2.28 ng/mL
- concentration at 22 day [1]: 5.65 ng/mL
- concentration at 22 day [2]: 3.7 ng/mL
- concentration at 22 day [3]: 3.11 ng/mL
- concentration at 22 day [4]: 2.34 ng/mL
- concentration at 0 h (650 mg, Cohort 5, 650 mg QD of Form B, Day 29, 0.0 h, read-out: Compound III Concentration, Median): 2.06 ng/mL
- concentration at 0 h (650 mg, Cohort 5, 650 mg QD of Form B, Day 29, 0.0 h, read-out: Compound III Concentration, Min): 1.3 ng/mL
- concentration at 1 h (650 mg, Cohort 5, 650 mg QD of Form B, Day 29, 1.0 h, read-out: Compound III Concentration, Median): 2.49 ng/mL
- concentration at 1 h (650 mg, Cohort 5, 650 mg QD of Form B, Day 29, 1.0 h, read-out: Compound III Concentration, Min): 1.28 ng/mL
- concentration at 2 h (650 mg, Cohort 5, 650 mg QD of Form B, Day 29, 2.0 h, read-out: Compound III Concentration, Median): 3.14 ng/mL
- concentration at 2 h (650 mg, Cohort 5, 650 mg QD of Form B, Day 29, 2.0 h, read-out: Compound III Concentration, Min): 1.85 ng/mL
- concentration at 3 h (650 mg, Cohort 5, 650 mg QD of Form B, Day 29, 3.0 h, read-out: Compound III Concentration, Median): 3.89 ng/mL
- concentration at 3 h (650 mg, Cohort 5, 650 mg QD of Form B, Day 29, 3.0 h, read-out: Compound III Concentration, Min): 2.61 ng/mL
- concentration at 4 h (650 mg, Cohort 5, 650 mg QD of Form B, Day 29, 4.0 h, read-out: Compound III Concentration, Median): 4.78 ng/mL
- concentration at 4 h (650 mg, Cohort 5, 650 mg QD of Form B, Day 29, 4.0 h, read-out: Compound III Concentration, Min): 3.42 ng/mL
- concentration at 6 h (650 mg, Cohort 5, 650 mg QD of Form B, Day 29, 6.0 h, read-out: Compound III Concentration, Median): 7.57 ng/mL
- concentration at 6 h (650 mg, Cohort 5, 650 mg QD of Form B, Day 29, 6.0 h, read-out: Compound III Concentration, Min): 5.3 ng/mL
- concentration at 8 h (650 mg, Cohort 5, 650 mg QD of Form B, Day 29, 8.0 h, read-out: Compound III Concentration, Median): 8.64 ng/mL
- concentration at 8 h (650 mg, Cohort 5, 650 mg QD of Form B, Day 29, 8.0 h, read-out: Compound III Concentration, Min): 5.18 ng/mL
- concentration at 10 h (650 mg, Cohort 5, 650 mg QD of Form B, Day 29, 10.0 h, read-out: Compound III Concentration, Min): 4.64 ng/mL
- concentration at 12 h (650 mg, Cohort 5, 650 mg QD of Form B, Day 29, 12.0 h, read-out: Compound III Concentration, Min): 3.42 ng/mL
- concentration at 24 h (650 mg, Cohort 5, 650 mg QD of Form B, Day 29, […], read-out: Compound III Concentration, Median): 3.04 ng/mL
- concentration at 24 h (650 mg, Cohort 5, 650 mg QD of Form B, Day 29, […], read-out: Compound III Concentration, Min): 2.49 ng/mL
